According to ChEMBL document CHEMBL1136277, “(R)-3-(N-methylpyrrolidin-2-ylmethyl)-5-(1,2,3,6-tetrahydropyridin-4-yl)-1H-indole derivatives as high affinity h5-HT1B/1D ligands” (Bioorg Med Chem Lett, 2003):

Experiments:
[1] = biological target: T1, 5-hydroxytryptamine receptor 1B (Homo sapiens, UniProt P28222); assay: Selectivity ratio against cloned human 5-HT1B receptor to that of h5-HT1D receptor
[2] = biological target: T1, 5-hydroxytryptamine receptor 1B; assay: Binding affinity towards cloned human 5-hydroxytryptamine 1B receptor
[3] = biological target: 5-hydroxytryptamine receptor 1D (Homo sapiens, UniProt P28221); assay: Binding affinity towards cloned human 5-hydroxytryptamine 1D receptor
5-hydroxytryptamine receptor 1D, sequence (P28221 whole entry): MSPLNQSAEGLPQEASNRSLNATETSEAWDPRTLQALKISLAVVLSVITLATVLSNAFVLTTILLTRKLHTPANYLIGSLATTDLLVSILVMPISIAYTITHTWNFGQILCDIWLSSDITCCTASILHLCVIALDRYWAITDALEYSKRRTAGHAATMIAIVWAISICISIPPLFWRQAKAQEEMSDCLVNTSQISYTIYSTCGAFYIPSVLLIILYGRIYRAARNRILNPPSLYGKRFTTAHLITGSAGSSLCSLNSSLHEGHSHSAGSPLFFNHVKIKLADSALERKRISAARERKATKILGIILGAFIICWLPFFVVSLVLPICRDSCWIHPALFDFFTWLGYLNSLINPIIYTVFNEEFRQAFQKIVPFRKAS

T1 sequence (P28222 whole entry): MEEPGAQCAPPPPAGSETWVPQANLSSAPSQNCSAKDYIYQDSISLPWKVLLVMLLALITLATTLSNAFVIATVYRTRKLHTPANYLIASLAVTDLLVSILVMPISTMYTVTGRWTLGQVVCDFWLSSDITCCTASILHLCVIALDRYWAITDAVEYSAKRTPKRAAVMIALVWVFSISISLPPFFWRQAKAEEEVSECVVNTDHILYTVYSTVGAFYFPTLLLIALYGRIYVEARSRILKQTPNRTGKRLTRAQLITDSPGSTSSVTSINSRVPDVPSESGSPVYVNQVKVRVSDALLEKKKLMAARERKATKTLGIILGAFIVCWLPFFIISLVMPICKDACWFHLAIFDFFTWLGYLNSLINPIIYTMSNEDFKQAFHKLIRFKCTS

| Structure (SMILES) | Selectivity [1] | Ki [2] [nM] | Ki [3] [nM] |
| --- | --- | --- | --- |
| CN1CCC[C@@H]1Cc1c[nH]c2ccc(C3=CCN(/C(S)=N/c4ccc(Cl)cc4)CC3)cc12 | 2.7 | 1.5 | 0.56 |
| Cc1ccc(/N=C(\S)N2CC=C(c3ccc4[nH]cc(C[C@H]5CCCN5C)c4c3)CC2)cc1 | 3.9 | – | – |
| Cc1ccc(NC(=S)N2CC=C(c3ccc4[nH]cc(C[C@H]5CCCN5C)c4c3)CC2)cc1 | – | 1.5 | 0.38 |
| CN1CCC[C@@H]1Cc1c[nH]c2ccc(C3=CCN(C(=O)Nc4ccc(Cl)cc4)CC3)cc12 | 10 | 3.8 | 0.38 |
| COc1ccc(S(=O)(=O)N2CC=C(c3ccc4[nH]cc(C[C@H]5CCCN5C)c4c3)CC2)cc1 | 19 | 14 | 0.76 |
| CN1CCC[C@@H]1Cc1c[nH]c2ccc(C3=CCN(/C(S)=N/C45C[C@H]6C[C@@H](C4)C[C@@H](C5)C6)CC3)cc12 | 7 | 39 | 5.6 |
| Cc1ccc(NC(=O)N2CC=C(c3ccc4[nH]cc(C[C@H]5CCCN5C)c4c3)CC2)cc1 | 9.7 | 3 | 0.31 |
| CN1CCC[C@@H]1Cc1c[nH]c2ccc(C3=CCN(C(=O)Nc4cccc5ccccc45)CC3)cc12 | 8.4 | 3.8 | 0.45 |
| COc1ccc(NC(=S)N2CC=C(c3ccc4[nH]cc(C[C@H]5CCCN5C)c4c3)CC2)cc1 | 5.2 | 2.4 | 0.46 |
| CN1CCC[C@@H]1Cc1c[nH]c2ccc(C3=CCN(/C(S)=N/c4ccccc4)CC3)cc12 | 8.5 | – | – |
| CN1CCC[C@@H]1Cc1c[nH]c2ccc(C3=CCN(/C(S)=N/c4cccc5ccccc45)CC3)cc12 | 4.6 | 3.2 | 0.7 |
| CN1CCC[C@@H]1Cc1c[nH]c2ccc(C3=CCN(/C(S)=N/C4CCCCC4)CC3)cc12 | 6.3 | – | – |
| CN1CCC[C@@H]1Cc1c[nH]c2ccc(C3=CCN(C(=O)NC45C[C@H]6C[C@@H](C4)C[C@@H](C5)C6)CC3)cc12 | 2.8 | 11 | 4 |
| CN(C)CCc1c[nH]c2ccc(C3=CCN(C)CC3)cc12 | – | 610 | 8 |
| CN1CCC[C@@H]1Cc1c[nH]c2ccc(C3=CCN(C(=O)Nc4ccccc4)CC3)cc12 | 11 | 4.8 | 0.45 |
| COc1ccc(NC(=O)N2CC=C(c3ccc4[nH]cc(C[C@H]5CCCN5C)c4c3)CC2)cc1 | 10 | 4.2 | 0.42 |
| CN1CCC[C@@H]1Cc1c[nH]c2ccc(C3=CCN(S(=O)(=O)c4cccc5ccccc45)CC3)cc12 | 26 | 23 | 0.88 |
| Cc1ccc(S(=O)(=O)N2CC=C(c3ccc4[nH]cc(C[C@H]5CCCN5C)c4c3)CC2)cc1 | 21 | 17 | 0.8 |
| CN1CCC[C@@H]1Cc1c[nH]c2ccc(C3=CCN(C(=O)NC4CCCCC4)CC3)cc12 | 4.6 | 14 | 3 |
| CN1CCC[C@@H]1Cc1c[nH]c2ccc(C3=CCN(C(=S)NC4CCCCC4)CC3)cc12 | – | 13 | 2 |
| CN1CCC[C@@H]1Cc1c[nH]c2ccc(C3=CCN(C(=S)Nc4ccccc4)CC3)cc12 | – | 5.8 | 0.68 |
